Experiment [1] relates to Turnip (TP). Briefly: Post-emergence herbicide test. Format: in vivo, Brassica sp. Particulars: Brassica rapa, post-emergence, 336 h, two weeks after treatment; for pest or weed control at 8966.8 g/ha: 8 lb/acre. Summed up: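 A greenhouse post-emergence herbicide test on turnip. Seeds were sown on the surface of potting soil in 3' plastic pots, lightly covered with screened soil and watered from below. Planting was timed so seedlings had 1 or 2 true leaves above the cotyledons at spraying, done in a hood with a fixed nozzle. Control or injury was scored by eye after two weeks.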

The test system of experiment [2] is Corn (CN). Briefly: Post-emergence herbicide test. In kind it is in vivo. Particulars: Zea mays, 336 h, two weeks after treatment; for pest or weed control at 8966.8 g/ha: 8 lb/acre. The procedure, abridged:
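Greenhouse seedlings grown in potting soil and sprayed post-emergence at 8 lbs compound/acre (formulations also made for 4 lbs/acre) in 38 gallons/acre spray volume. Watering by sub-irrigation only. Injury or control rated visually two weeks after treatment.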

In experiment [3] the test system is Johnson grass (JG). The experiment is described as follows: Pre-emergence herbicide test. Format: in vivo, Sorgum helepense. The conditions noted are these: Sorghum halepense, 336 h, 8 lb/acre, two weeks after treatment. The procedure, abridged:
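Visual injury or control rating two weeks post-treatment, after pre-emergence spray of 8 or 4 lbs active per acre (38 gal/acre) onto pots sown the previous day. Greenhouse watering by sub-irrigation only.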

For experiment [4], the system named is Amaranth pigweed (PW). The experiment is described as follows: Pre-emergence herbicide test. Format: in vivo, Amaranthus retroflexus. The conditions noted are these: 336 h, 8 lb/acre, two weeks after treatment. The procedure, abridged:
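Visual injury or control ratings were made at two weeks on pre-emergence pots, sub-irrigated in the greenhouse. Seeds were sown a day before a hood spray delivering 8 lbs/acre (or 4 lbs/acre) of compound in 38 gallons per acre.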

Experiment [5] relates to Barnyard grass (BG). The experiment is described as follows: Post-emergence herbicide test. In kind it is in vivo. The conditions noted are these: Echinochloa crus-galli, 336 h, two weeks after treatment; for pest or weed control at 8966.8 g/ha: 8 lb/acre. Summed up: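 Greenhouse pot-grown barnyard grass seedlings sprayed post-emergence at 8 lbs active compound per acre (some at 4 lbs/acre) in 38 gallons per acre, then sub-irrigated. Injury or control rated visually two weeks after treatment.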

For experiment [6], the system named is Turnip (TP). The experiment is described as follows: Pre-emergence herbicide test. In kind it is in vivo, Brassica sp. The conditions noted are these: Brassica rapa, pre-emergence, 336 h; 8 lb/acre; two weeks after treatment. The procedure, abridged:
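In this pre-emergence greenhouse test, turnip was seeded on the surface of potting soil in 3' plastic pots, lightly covered with screened soil, and watered from below. One day later the pots were sprayed in a belt-fed spray hood. Watering continued only by sub-irrigation, and percent control was visually scored two weeks after treatment.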

The subject of experiment [7] is Yellow foxtail grass (YF). Briefly: Post-emergence herbicide test. Format: in vivo, Setaria glauca. The conditions noted are these: Setaria, 336 h, two weeks after treatment; for pest or weed control at 8966.8 g/ha: 8 lb/acre. The method, then: (§1) Yellow foxtail grass (YF)--Setaria glauca
(§2) All crop and weed species were planted individually in 3' plastic pots containing potting soil. Four seeds each of corn, cotton, and snapbeans were seeded to a depth equal to the diameter of the seed. All other species were surface seeded and sprinkled with screened soil in an amount sufficient to cover the seed. Immediately after planting, all pots were watered by sub-irrigation in greenhouse trays. Pots for the pre-emergence phase were seeded one day before treatment.
Planting dates for the post-emergence phase were varied so that all seedlings would reach the desired stage of development simultaneously. The proper stage of seedling development for treatment in the post-emergence phase is as follows:
(§3) Compounds were tested at rates of application equivalent to 8 lbs. of actual compound per acre in a spray volume of 38 gallons per acre. Spray hood constants required to deliver the above volume are as follows:
(§4) Formulations for spray applications were prepared in 50 ml volumes with the following three components:
(§5) Formulations for the 4 lbs/acre rate were prepared by adjusting the amount of active ingredient accordingly.
(§6) Spray applications were made in a hood containing a removable belt and fixed spray nozzle. For passage through the spray hood, one pot of each specie (pre-emergence phase) was placed on the rear half of the flat. Treatments were removed to the greenhouse after spraying. Watering during the observation period was done only by sub-irrigation.
(§7) Two weeks after treatment, pre- and post-emergence injury or control was visually rated, and the results were as shown in the following tables. Pre-emergence data are provided in TABLE III and post-emergence data are provided in TABLE IV, for compounds having the formula illustrated in TABLE I. Correspondingly, pre-emergence and post-emergence data, respectively, are set forth in TABLES V AND VI, for compounds having the formula illustrated in TABLE II.

In experiment [8] the test system is Barnyard grass (BG). Briefly: Pre-emergence herbicide test. Format: in vivo. Particulars: Echinochloa crus-galli, 336 h, 8 lb/acre, two weeks after treatment. The procedure, abridged:
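Greenhouse pre-emergence spray test: pots seeded one day before treatment received compound at rates of 8 or 4 lb/acre (38 gal/acre). Visual injury/control scores for Echinochloa crus-galli taken at two weeks, with watering by sub-irrigation only.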

The subject of experiment [9] is Corn (CN). The experiment is described as follows: Pre-emergence herbicide test. In kind it is in vivo. The conditions noted are these: Zea mays, 336 h, 8 lb/acre, two weeks after treatment. Summed up:
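Visual injury/control ratings were made 2 weeks post-spray on corn pots seeded (4 seeds, seed-diameter depth) the day before treatment. Application was a belt-hood spray of 38 gal/acre delivering 8 lbs active per acre, with a 4 lbs/acre rate also formulated. Watering was by sub-irrigation throughout.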

In experiment [10] the test system is Johnson grass (JG). Briefly: Post-emergence herbicide test. Format: in vivo, Sorgum helepense. Particulars: Sorghum halepense, 336 h, two weeks after treatment; for pest or weed control at 8966.8 g/ha: 8 lb/acre. The procedure, abridged: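 Visual injury or control scores taken 2 weeks after a post-emergence spray of pot-grown plants. Application was 8 lbs/acre (or 4 lbs/acre) in 38 gal/acre. Plants were held in the greenhouse with sub-irrigation only.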

Experiment [11] deals with Bean (BN). The experiment is described as follows: Pre-emergence herbicide test. Format: in vivo, Phaseolus vulgaris var. Black Valentine. The conditions noted are these: Phaseolus vulgaris, 336 h, 8 lb/acre, two weeks after treatment. The procedure, abridged: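 Visual injury/control ratings were taken two weeks post-spray on sub-irrigated Phaseolus vulgaris var. Black Valentine. Pots were sown a day before treatment. Pre-emergence spray delivered 8 lbs actual compound per acre (or 4 lbs/acre) at 38 gallons per acre.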

The test system of experiment [12] is Crabgrass (CG). The experiment is described as follows: Pre-emergence herbicide test. In kind it is in vivo, Digitaria sanquinalis. The conditions noted are these: Digitaria sanguinalis, pre-emergence, 336 h; 8 lb/acre; two weeks after treatment. Summed up: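 Crabgrass (Digitaria sanquinalis) was surface seeded in 3' plastic pots of potting soil, covered with screened soil, and watered by sub-irrigation in greenhouse trays. Pots were seeded one day before spraying in a hood with a moving belt and fixed nozzle. Plants stayed in the greenhouse on sub-irrigation, and pre-emergence control was rated visually two weeks after treatment.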

Experiment [13] deals with Cotton (CT). Briefly: Post-emergence herbicide test. In kind it is in vivo, Gossypium hirsutum var. DPL smooth leaf. Particulars: Gossypium hirsutum, post-emergence, 336 h, two weeks after treatment; for pest or weed control at 8966.8 g/ha: 8 lb/acre. The procedure, abridged:
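This greenhouse post-emergence test measured how well spray treatments controlled cotton. Seedlings of Gossypium hirsutum var. DPL smooth leaf, with expanded cotyledons and a first true leaf 1' in length, were sprayed with 50 ml formulations in a belt-fed spray hood. They were then returned to the greenhouse and watered only by sub-irrigation. Injury was scored visually as % control after two weeks.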

In experiment [14] the test system is Bean (BN). Briefly: Post-emergence herbicide test. In kind it is in vivo, Phaseolus vulgaris var. Black Valentine. Particulars: Phaseolus vulgaris, post-emergence, 336 h, two weeks after treatment; for pest or weed control at 8966.8 g/ha: 8 lb/acre. Summed up: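 Bean seedlings (Phaseolus vulgaris var. Black Valentine) were grown in potting soil in 3' pots until the primary leaves expanded. They were then sprayed under a hood with a removable belt and fixed nozzle, using 50 ml formulations. Afterward they were returned to the greenhouse and watered only by sub-irrigation. Percent control was judged visually two weeks after treatment.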

In experiment [15] the test system is Amaranth pigweed (PW). Briefly: Post-emergence herbicide test. Particulars: 336 h, two weeks after treatment; for pest or weed control at 8966.8 g/ha: 8 lb/acre. In kind it is in vivo, Amaranthus retroflexus. The procedure, abridged: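 Visual injury or control ratings were made two weeks after spraying, with greenhouse watering by sub-irrigation only. Treatment was post-emergence, when pigweed seedlings had 1 or 2 true leaves, at 8 lbs active compound per acre (4 lbs/acre formulations also made) in a 38 gallons-per-acre spray volume.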

Experiment [16] concerns Cotton (CT). Briefly: Pre-emergence herbicide test. Format: in vivo, Gossypium hirsutum var. DPL smooth leaf. Particulars: Gossypium hirsutum, 336 h, 8 lb/acre, two weeks after treatment. The procedure, abridged:
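Visual injury/control ratings were taken at two weeks post-spray. Pots seeded a day earlier received compound pre-emergence at 8 lbs/acre, or 4 lbs/acre, in a 38 gallon/acre spray volume, and were then held in the greenhouse, watered only from below.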

Experiment [17] has as its system Crabgrass (CG). The experiment is described as follows: Post-emergence herbicide test. Format: in vivo, Digitaria sanquinalis. The conditions noted are these: Digitaria sanguinalis, post-emergence, 336 h, two weeks after treatment; for pest or weed control at 8966.8 g/ha: 8 lb/acre. Summed up: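 Crabgrass (Digitaria sanquinalis) was surface seeded individually in 3' plastic pots of potting soil, covered with screened soil, and watered by sub-irrigation in greenhouse trays. Planting was staggered so seedlings reached the target stage together. Post-emergence sprays were applied in a hood with a removable belt and fixed nozzle, and control was visually rated two weeks after treatment.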

The subject of experiment [18] is Yellow foxtail grass (YF). The experiment is described as follows: Pre-emergence herbicide test. Particulars: Setaria, 336 h, 8 lb/acre, two weeks after treatment. In kind it is in vivo, Setaria glauca. The method, then:
as §1, §2, §3, §4, §5, §6, §7

A word on the pest or weed control: it is the degree to which the test organism was suppressed or injured, in per cent. Read a low pest or weed control as weak suppression. Take `CCc1nnc(NC(=O)NC)s1` [Example 3, 1-Methyl-3-[5-Ethyl-2-(1,3,4-Thiadiazolyl)] Urea]: the pest or weed control at 8966.8 g/ha was determined as 100% in [1]; 20% in experiment [2]; 20% in [3]; 70% in [4]; 20% in experiment [5]; 70% in experiment [6]. The pest or weed control at 8966.8 g/ha in [7] is 20%; in [8], 10%; in experiment [9] it was 100%; in experiment [10], 20%; in experiment [11], 90%; in [12] it was 10%. Also, the pest or weed control at 8966.8 g/ha in experiment [13] is 90%; in [14], 60%; in experiment [15], 100%; in experiment [16] it was 50%; in experiment [17] it was 20%.
`CCCNC(=O)Nc1nnc(C(F)(F)F)s1` [Example 10]: the pest or weed control at 8966.8 g/ha in [1] was determined as 60%; in experiment [2] it was 40%; in [3], 20%; in experiment [5], 40%; in experiment [6], 10%; in [7] it was 20%. The pest or weed control at 8966.8 g/ha in experiment [8] came to 10%; in [9], 50%; in experiment [10], 30%; in [18], 20%; in experiment [11], 80%; in experiment [12], 20%. Moreover, the pest or weed control at 8966.8 g/ha in experiment [13] worked out at 60%; in [14] it was 50%; in experiment [15], 100%; in experiment [16], 80%; in experiment [17], 50%.
For `CNC(=O)Nc1nnc(C)s1` [Example 18], the pest or weed control at 8966.8 g/ha came to 40% in [1]; 20% in experiment [2]; 10% in experiment [3]; 10% in experiment [4]; 20% in [5]; 50% in experiment [6]. The pest or weed control at 8966.8 g/ha in [7] amounted to 20%; in [8], 20%; in experiment [9] it was 30%; in [10] it was 20%; in experiment [11], 50%; in [12], 10%. The pest or weed control at 8966.8 g/ha in experiment [13] is 50%; in experiment [14] it was 50%; in experiment [15], 40%; in experiment [16], 30%; in experiment [17], 20%.
On to `C=C(C)CSc1nnc(NC(=O)NC)s1` [Example 49], for which the pest or weed control at 2241.7 g/ha in experiment [1] (2 lb/acre) came to 70%; in [15] (2 lb/acre) it was 100%. For the same compound, the pest or weed control at 4483.4 g/ha turned out to be 90% in [1] (4 lb/acre); 40% in experiment [2] (4 lb/acre); 40% in experiment [5] (4 lb/acre); 40% in experiment [7] (4 lb/acre); 40% in experiment [10] (4 lb/acre); 100% in [13] (4 lb/acre). For the same compound, the pest or weed control at 4483.4 g/ha was 50% in [14] (4 lb/acre) and 80% in experiment [17] (4 lb/acre).
`CNC(=O)Nc1nnc(-c2cccc(Cl)c2)s1` [Example 72]: the pest or weed control at 8966.8 g/ha in [1] worked out at 40%; in experiment [2], 0%; in experiment [3], 0%; in experiment [5] it was 40%; in experiment [6], 0%; in experiment [7], 30%. Moreover, the pest or weed control at 8966.8 g/ha came to 0% in experiment [8]; 30% in experiment [9]; 20% in experiment [10]; 100% in [11]; 0% in experiment [12]; 30% in experiment [13]. Further, the pest or weed control at 8966.8 g/ha in experiment [14] was found to be 20%; in experiment [16], 80%; in experiment [17] it was 30%.

The values are drawn from patent US4175081A, “5-Substituted thiadiazole ureas” (priority 1977, dated 1979).
